Reference: PMC9743092, “Membrane-Active Cyclic Amphiphilic Peptides: Broad-Spectrum Antibacterial Activity Alone and in Combination with Antibiotics” (Journal of Medicinal Chemistry, 2022)
Square brackets hold non-standard residues; d marks the D form. Peptide text beside a SMILES is read from it.

How the values were obtained:
MRSA (ATCC BAA-1556) = test system: MRSA (ATCC BAA-1556); parameters: MIC MRSA: unit not given beside the values; settings: supplementary csv, unit not given
E. coli (ATCC 25922) = test system: E. coli (ATCC 25922); parameters: MIC E. coli: unit not given beside the values; settings: supplementary csv, unit not given
[1] = test system: human red blood cells (hRBCs); settings: red cells of human, 2 h
[2] = test system: K. pneumoniae (ATCC BAA-1705); settings: supplementary csv, unit not given
[3] = test system: P. aeruginosa (ATCC 27883); parameters: MIC P. aeruginosa: unit not given beside the values; settings: supplementary csv, unit not given

| MIC K. pneumoniae [2] | MIC P. aeruginosa [3] | SMILES | MIC MRSA (MRSA (ATCC BAA-1556)) | MIC E. coli (E. coli (ATCC 25922)) | HC50 [1] [µg/mL] |
| --- | --- | --- | --- | --- | --- |
| – | – | N=C(N)NCCC[C@@H]1NC(=O)[C@H](CCCNC(=N)N)NC(=O)[C@H](CCCNC(=N)N)NC(=O)[C@H](CCCNC(=N)N)NC(=O)[C@H](Cc2c[nH]c3ccccc23)NC(=O)[C@H](Cc2c[nH]c3ccccc23)NC(=O)[C@H](Cc2c[nH]c3ccccc23)NC(=O)[C@H](Cc2c[nH]c3ccccc23)NC(=O)[C@H](Cc2c[nH]c3ccccc23)NC(=O)[C@H](Cc2c[nH]c3ccccc23)NC(=O)[C@H](CCCNC(=N)N)NC(=O)[C@H](CCCNC(=N)N)NC(=O)[C@H](CCCNC(=N)N)NC1=O [7c, [R7W6]] (cyclo(RRRRRRRWWWWWW)) | 32 | 64 | 170 |
| >256 | >256 | N=C(N)NCCC[C@@H]1NC(=O)[C@H](CCCNC(=N)N)NC(=O)[C@H](CCCNC(=N)N)NC(=O)[C@H](Cc2c[nH]c3ccccc23)NC(=O)[C@H](Cc2c[nH]c3ccccc23)NC(=O)[C@H](Cc2c[nH]c3ccccc23)NC(=O)[C@H](Cc2c[nH]c3ccccc23)NC(=O)[C@H](Cc2c[nH]c3ccccc23)NC(=O)[C@H](Cc2c[nH]c3ccccc23)NC(=O)[C@H](Cc2c[nH]c3ccccc23)NC(=O)[C@H](CCCNC(=N)N)NC(=O)[C@H](CCCNC(=N)N)NC1=O [5d, [R5W7]] (cyclo(RRRRRWWWWWWW)) | >256 | >256 | 115 |
| 256 | 256 | N=C(N)NCCC[C@H]1NC(=O)[C@H](Cc2c[nH]c3ccccc23)NC(=O)[C@H](Cc2c[nH]c3ccccc23)NC(=O)[C@H](Cc2c[nH]c3ccccc23)NC(=O)[C@H](Cc2c[nH]c3ccccc23)NC(=O)[C@H](Cc2c[nH]c3ccccc23)NC(=O)[C@H](Cc2c[nH]c3ccccc23)NC(=O)[C@H](Cc2c[nH]c3ccccc23)NC(=O)[C@@H](CCCNC(=N)N)NC(=O)[C@@H](CCCNC(=N)N)NC1=O [3f, [dR3W7]] (cyclo([dR][dR][dR]WWWWWWW)) | 64 | 256 | – |
| 128 | 128 | N=C(N)NCCC[C@@H]1NC(=O)[C@H](CCCNC(=N)N)NC(=O)[C@H](CCCNC(=N)N)NC(=O)[C@H](Cc2c[nH]c3ccccc23)NC(=O)[C@H](Cc2c[nH]c3ccccc23)NC(=O)[C@H](Cc2c[nH]c3ccccc23)NC(=O)[C@H](Cc2c[nH]c3ccccc23)NC(=O)[C@H](Cc2c[nH]c3ccccc23)NC(=O)[C@H](CCCNC(=N)N)NC1=O [4b, [R4W5]] | 8 | 64 | 100 |
| >256 | >256 | N=C(N)NCCC[C@@H]1NC(=O)[C@H](CCCNC(=N)N)NC(=O)[C@H](CCCNC(=N)N)NC(=O)[C@H](Cc2c[nH]c3ccccc23)NC(=O)[C@H](Cc2c[nH]c3ccccc23)NC(=O)[C@H](Cc2c[nH]c3ccccc23)NC(=O)[C@H](Cc2c[nH]c3ccccc23)NC(=O)[C@H](Cc2c[nH]c3ccccc23)NC(=O)[C@H](Cc2c[nH]c3ccccc23)NC(=O)[C@H](CCCNC(=N)N)NC(=O)[C@H](CCCNC(=N)N)NC1=O [5c, [R5W6]] (cyclo(RRRRRWWWWWW)) | >256 | >256 | 140 |
| – | – | N=C(N)NCCC[C@@H]1NC(=O)[C@H](CCCNC(=N)N)NC(=O)[C@H](CCCNC(=N)N)NC(=O)[C@H](CCCNC(=N)N)NC(=O)[C@H](Cc2c[nH]c3ccccc23)NC(=O)[C@H](Cc2c[nH]c3ccccc23)NC(=O)[C@H](Cc2c[nH]c3ccccc23)NC(=O)[C@H](Cc2c[nH]c3ccccc23)NC(=O)[C@H](Cc2c[nH]c3ccccc23)NC(=O)[C@H](Cc2c[nH]c3ccccc23)NC(=O)[C@H](Cc2c[nH]c3ccccc23)NC(=O)[C@H](CCCNC(=N)N)NC(=O)[C@H](CCCNC(=N)N)NC(=O)[C@H](CCCNC(=N)N)NC1=O [7d, [R7W7]] (cyclo(RRRRRRRWWWWWWW)) | 16 | 32 | 140 |
| 256 | >256 | N=C(N)NCCC[C@@H]1NC(=O)[C@H](CCCNC(=N)N)NC(=O)[C@H](CCCNC(=N)N)NC(=O)[C@H](Cc2c[nH]c3ccccc23)NC(=O)[C@H](Cc2c[nH]c3ccccc23)NC(=O)[C@H](Cc2c[nH]c3ccccc23)NC(=O)[C@H](Cc2c[nH]c3ccccc23)NC(=O)[C@H](Cc2c[nH]c3ccccc23)NC(=O)[C@H](Cc2c[nH]c3ccccc23)NC(=O)[C@H](Cc2c[nH]c3ccccc23)NC(=O)[C@H](CCCNC(=N)N)NC1=O [4d, [R4W7]] (cyclo(RRRRWWWWWWW)) | 256 | 128 | 60 |
| 64 | 256 | N=C(N)NCCC[C@@H]1NC(=O)[C@H](CCCNC(=N)N)NC(=O)[C@H](Cc2c[nH]c3ccccc23)NC(=O)[C@H](Cc2c[nH]c3ccccc23)NC(=O)[C@H](Cc2c[nH]c3ccccc23)NC(=O)[C@H](Cc2c[nH]c3ccccc23)NC(=O)[C@H](Cc2c[nH]c3ccccc23)NC(=O)[C@H](Cc2c[nH]c3ccccc23)NC(=O)[C@H](Cc2c[nH]c3ccccc23)NC(=O)[C@H](CCCNC(=N)N)NC1=O [3e, [R3W7]] (cyclo(RRRWWWWWWW)) | 256 | 256 | 60 |
| – | – | N=C(N)NCCC[C@@H]1NC(=O)[C@H](CCCNC(=N)N)NC(=O)[C@H](CCCNC(=N)N)NC(=O)[C@H](CCCNC(=N)N)NC(=O)[C@H](Cc2c[nH]c3ccccc23)NC(=O)[C@H](Cc2c[nH]c3ccccc23)NC(=O)[C@H](Cc2c[nH]c3ccccc23)NC(=O)[C@H](Cc2c[nH]c3ccccc23)NC(=O)[C@H](Cc2c[nH]c3ccccc23)NC(=O)[C@H](CCCNC(=N)N)NC(=O)[C@H](CCCNC(=N)N)NC(=O)[C@H](CCCNC(=N)N)NC1=O [7b, [R7W5]] (cyclo(RRRRRRRWWWWW)) | 8 | 64 | 175 |
| – | – | N=C(N)NCCC[C@@H]1NC(=O)[C@H](CCCNC(=N)N)NC(=O)[C@H](Cc2c[nH]c3ccccc23)NC(=O)[C@H](Cc2c[nH]c3ccccc23)NC(=O)[C@H](Cc2c[nH]c3ccccc23)NC(=O)[C@H](Cc2c[nH]c3ccccc23)NC(=O)[C@H](Cc2c[nH]c3ccccc23)NC(=O)[C@H](CCCNC(=N)N)NC1=O [3c, [R3W5]] (cyclo(RRRWWWWW); ring closure inferred) | – | – | 80 |
| 256 | >256 | N=C(N)NCCC[C@@H]1NC(=O)[C@H](CCCNC(=N)N)NC(=O)[C@H](CCCNC(=N)N)NC(=O)[C@H](CCCNC(=N)N)NC(=O)[C@H](Cc2c[nH]c3ccccc23)NC(=O)[C@H](Cc2c[nH]c3ccccc23)NC(=O)[C@H](Cc2c[nH]c3ccccc23)NC(=O)[C@H](Cc2c[nH]c3ccccc23)NC(=O)[C@H](Cc2c[nH]c3ccccc23)NC(=O)[C@H](Cc2c[nH]c3ccccc23)NC(=O)[C@H](Cc2c[nH]c3ccccc23)NC(=O)[C@H](CCCNC(=N)N)NC(=O)[C@H](CCCNC(=N)N)NC1=O [6d, [R6W7]] (cyclo(RRRRRRWWWWWWW)) | 64 | 128 | 85 |

| SMILES | MIC K. pneumoniae [2] | MIC P. aeruginosa [3] | MIC MRSA (MRSA (ATCC BAA-1556)) | MIC E. coli (E. coli (ATCC 25922)) | HC50 [1] [µg/mL] |
| --- | --- | --- | --- | --- | --- |
| N=C(N)NCCC[C@@H]1NC(=O)[C@H](CCCNC(=N)N)NC(=O)[C@H](Cc2c[nH]c3ccccc23)NC(=O)[C@H](Cc2c[nH]c3ccccc23)NC(=O)[C@H](Cc2c[nH]c3ccccc23)NC(=O)[C@H](CCCNC(=N)N)NC1=O [3a, [R3W3]] (cyclo(WWWRRR); ring closure inferred) | 64 | 128 | 16 | 32 | 155 |
| N=C(N)NCCC[C@@H]1NC(=O)[C@H](CCCNC(=N)N)NC(=O)[C@H](CCCNC(=N)N)NC(=O)[C@H](Cc2c[nH]c3ccccc23)NC(=O)[C@H](Cc2c[nH]c3ccccc23)NC(=O)[C@H](Cc2c[nH]c3ccccc23)NC(=O)[C@H](Cc2c[nH]c3ccccc23)NC(=O)[C@H](Cc2c[nH]c3ccccc23)NC(=O)[C@H](Cc2c[nH]c3ccccc23)NC(=O)[C@H](CCCNC(=N)N)NC1=O [4c, [R4W6]] | 256 | 128 | 128 | 128 | 75 |
| N=C(N)NCCC[C@@H]1NC(=O)[C@H](CCCNC(=N)N)NC(=O)[C@H](CCCNC(=N)N)NC(=O)[C@H](CCCNC(=N)N)NC(=O)[C@H](Cc2c[nH]c3ccccc23)NC(=O)[C@H](Cc2c[nH]c3ccccc23)NC(=O)[C@H](Cc2c[nH]c3ccccc23)NC(=O)[C@H](Cc2c[nH]c3ccccc23)NC(=O)[C@H](CCCNC(=N)N)NC(=O)[C@H](CCCNC(=N)N)NC(=O)[C@H](CCCNC(=N)N)NC1=O [7a, [R7W4]] (cyclo(RRRRRRRWWWW)) | 64 | 32 | 16 | 32 | 190 |
| N=C(N)NCCC[C@@H]1NC(=O)[C@H](CCCNC(=N)N)NC(=O)[C@H](Cc2c[nH]c3ccccc23)NC(=O)[C@H](Cc2c[nH]c3ccccc23)NC(=O)[C@H](Cc2c[nH]c3ccccc23)NC(=O)[C@H](Cc2c[nH]c3ccccc23)NC(=O)[C@H](CCCNC(=N)N)NC1=O [3b, [R3W4]] (cyclo(RRRWWWW); ring closure inferred) | 64 | 256 | 8 | 32 | 105 |
| N=C(N)NCCC[C@@H]1NC(=O)[C@H](CCCNC(=N)N)NC(=O)[C@H](Cc2c[nH]c3ccccc23)NC(=O)[C@H](Cc2c[nH]c3ccccc23)NC(=O)[C@H](Cc2c[nH]c3ccccc23)NC(=O)[C@H](Cc2c[nH]c3ccccc23)NC(=O)[C@H](Cc2c[nH]c3ccccc23)NC(=O)[C@H](Cc2c[nH]c3ccccc23)NC(=O)[C@H](CCCNC(=N)N)NC1=O [3d, [R3W6]] | 128 | 256 | 64 | 64 | 65 |
